Measurements as given in ChEMBL document CHEMBL1134299, “Conformationally constrained analogues of diacylglycerol. 18. The incorporation of a hydroxamate moiety into diacylglycerol-lactones reduces lipophilicity and helps discriminate between sn-1 and sn-2 binding modes to protein kinase C (PK-C). Implications for isozyme specificity” (J Med Chem, 2001).

How the values were obtained:
[1] = Partition coefficient (logP); type: physicochemical; conditions: octanol/water
[2] = target: Protein kinase C alpha type (Homo sapiens, UniProt P17252); experiment: Displacement of [20-3H]-PDBU ligand from recombinant protein kinase C (baculovirus)

logP [1] | Ki [2] | Structure (SMILES)
3.58 | 4.81 nM | CC(C)CC(C/C=C1\CC(CO)(CN(O)C(=O)C(C)(C)C)OC1=O)CC(C)C (stereo not given)
 | 11.2 nM | CC(C)C(C/C=C1\CC(CO)(COC(=O)C(C)(C)C)OC1=O)C(C)C (stereo not given)
3.95 | 430 nM | CC(C)CC(C/C=C1/CC(CO)(CNC(=O)C(C)(C)C)OC1=O)CC(C)C (stereo not given)
5.89 |  | CC(C)C(C/C=C1\CC(CO)(COC(=O)CC(C(C)C)C(C)C)OC1=O)C(C)C (stereo not given)
5.01 | 4840 nM | CC(C)CC(C/C=C1\CC(CO)(COC(=O)C(C)(C)C)NC1=O)CC(C)C (stereo not given)
6.88 | 6.87 nM | CC(C)CC(C/C=C1/CC(CO)(COC(=O)CC(C(C)C)C(C)C)OC1=O)CC(C)C (stereo not given)
 | 8.32 nM | CC(C)C(C/C=C1/CC(CO)(COC(=O)C(C)(C)C)OC1=O)C(C)C (stereo not given)
6.88 | 4.46 nM | CC(C)CC(C/C=C1\CC(CO)(COC(=O)CC(C(C)C)C(C)C)OC1=O)CC(C)C (stereo not given)
 | 10400 nM | CC(C)CC(C/C=C1\CC(CO)(COC(=O)C(C)(C)C)N(O)C1=O)CC(C)C (stereo not given)
5.89 |  | CC(C)C(C/C=C1/CC(CO)(COC(=O)CC(C(C)C)C(C)C)OC1=O)C(C)C (stereo not given)
5.01 | 4330 nM | CC(C)CC(C/C=C1/CC(CO)(COC(=O)C(C)(C)C)NC1=O)CC(C)C (stereo not given)
3.95 | 1260 nM | CC(C)CC(C/C=C1\CC(CO)(CNC(=O)C(C)(C)C)OC1=O)CC(C)C (stereo not given)
3.58 | 5.42 nM | CC(C)CC(C/C=C1/CC(CO)(CN(O)C(=O)C(C)(C)C)OC1=O)CC(C)C (stereo not given)

Structure (SMILES) | logP [1] | Ki [2]
CC(C)CC(C/C=C1\CC(CO)(COC(=O)C(C)(C)C)OC1=O)CC(C)C (stereo not given) | 5.03 | 4.51 nM
CC(C)CC(C/C=C1/CC(CO)(COC(=O)C(C)(C)C)OC1=O)CC(C)C (stereo not given) | 5.03 | 2.9 nM
